Biological target: T1, Full length human recombinant HDAC8 protein (Homo sapiens, UniProt Q9BY41)
T1 construct: Full length human recombinant HDAC8 protein was expressed in baculoviral system; made in house
T1 sequence (Q9BY41 1-377): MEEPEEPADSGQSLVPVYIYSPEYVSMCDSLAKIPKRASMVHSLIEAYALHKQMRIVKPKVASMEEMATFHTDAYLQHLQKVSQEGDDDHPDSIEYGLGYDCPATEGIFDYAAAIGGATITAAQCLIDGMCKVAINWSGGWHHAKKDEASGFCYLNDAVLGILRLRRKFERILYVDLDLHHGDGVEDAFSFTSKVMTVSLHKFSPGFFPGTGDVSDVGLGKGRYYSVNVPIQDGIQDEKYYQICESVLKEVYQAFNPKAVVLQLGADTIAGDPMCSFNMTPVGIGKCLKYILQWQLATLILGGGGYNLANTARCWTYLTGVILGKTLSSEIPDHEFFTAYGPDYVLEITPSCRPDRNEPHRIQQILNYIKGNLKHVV
Assay: In vitro histone deacetylase assay: enzymatic HDAC8 assay, electrophoretic mobility shift
Assay type: biochemical
Conditions: substrate RHKK(Ac)-NH2, 1 nM enzyme, compounds listed under IC50 range headings
Outline: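 Baculovirus-expressed full-length human HDAC8 (1 nM) deacetylated 2 µM fluorescent RHKK(Ac)-NH2 peptide in pH 7.5 HEPES, 1% DMSO, at 25 °C, with 12 compound concentrations at 3× spacing. SDS-quenched; product and substrate resolved by microfluidic electrophoresis, P/(S+P) converted to percent inhibition, and IC50 obtained by 4-parameter fit.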

Structure (SMILES)	IC50 [nM]
COc1ccc(C(=O)N2CCN(c3ccccc3/C=C/C(=O)NO)CC2)cc1F [Example I-213]	< 1000
Cc1oc(-c2ccc(Cl)cc2)cc1C(=O)N1CCN(c2ccccc2/C=C/C(=O)NO)CC1 [Example I-214, (E)-3-(2-(4-(5-(4-chlorophenyl)-2-methylfuran-3-carbonyl)piperazin-1-yl)phenyl)-N-hydroxyacrylamide]	< 1000
O=C(/C=C/c1ccccc1N1CCN(C(=O)c2ccc3[nH]nnc3c2)CC1)NO [Example I-215, (E)-3-(2-(4-(1H-benzo[d][1,2,3]triazole-5-carbonyl)piperazin-1-yl)phenyl)-N-hydroxyacrylamide]	< 1000
CC(C)N(Cc1cccc(C(F)(F)F)c1)c1ccccc1/C=C/C(=O)NO [Example I-216, (E)-N-hydroxy-3-(2-(isopropyl(3-(trifluoromethyl)benzyl)amino)phenyl)acrylamide]	< 1000
O=C(/C=C/c1cccnc1CNc1ccc(-c2ccccc2)c(C(F)(F)F)c1)NO [Example I-217, (E)-N-hydroxy-3-(2-(((2-(trifluoromethyl)-[1,1′-biphenyl]-4-yl)amino)methyl)pyridin-3-yl)acrylamide]	< 1000
Cc1nn(C)c(Cl)c1S(=O)(=O)NC1CCN(c2ccccc2/C=C/C(=O)NO)CC1 [Example I-218, (E)-3-(2-(4-((5-chloro-1,3-dimethyl-1H-pyrazole)-4-sulfonamido)piperidin-1-yl)phenyl)-N-hydroxyacrylamide]	< 1000
Cc1noc(C)c1S(=O)(=O)NC1CCN(c2ccccc2/C=C/C(=O)NO)CC1 [Example I-220, (E)-3-(2-(4-((3,5-dimethylisoxazole)-4-sulfonamido)piperidin-1-yl)phenyl)-N-hydroxyacrylamide]	< 1000
O=C(/C=C/c1ccccc1N1CCC(NS(=O)(=O)c2cccnc2)CC1)NO [Example I-221, (E)-N-hydroxy-3-(2-(4-(pyridine-3-sulfonamido)piperidin-1-yl)phenyl)acrylamide]	< 1000
O=C(/C=C/c1ccccc1N1CCC(NS(=O)(=O)c2ccc(F)cc2)CC1)NO [Example I-222, (E)-3-(2-(4-((4-fluorophenyl)sulfonamido)piperidin-1-yl)phenyl)-N-hydroxyacrylamide]	< 1000
O=C(/C=C/c1ccccc1N1CCC(NS(=O)(=O)c2ccc(Cl)cc2)CC1)NO [Example I-223, (E)-3-(2-(4-((4-chlorophenyl)sulfonamido)piperidin-1-yl)phenyl)-N-hydroxyacrylamide]	< 1000
O=C(/C=C/c1ccccc1N1CCC(NS(=O)(=O)c2ccc(C(F)(F)F)cc2)CC1)NO [Example I-224, (E)-N-hydroxy-3-(2-(4-((4-(trifluoromethyl)phenyl)-sulfonamido)piperidin-1-yl)phenyl)acrylamide]	< 1000
CC(C)c1ccc(S(=O)(=O)NC2CCN(c3ccccc3/C=C/C(=O)NO)CC2)cc1 [Example I-225, (E)-N-hydroxy-3-(2-(4-((4-isopropylphenyl)sulfon-amido)piperidin-1-yl)phenyl)acrylamide]	< 1000
O=C(/C=C/c1ccccc1N1CCC(NS(=O)(=O)c2ccc(C(F)(F)F)nc2)CC1)NO [Example I-226, (E)-N-hydroxy-3-(2-(4-((6-(trifluoromethyl)pyridine)-3-sulfonamido)piperidin-1-yl)phenyl)acrylamide]	< 1000
CCS(=O)(=O)NC1CCN(c2ccccc2/C=C/C(=O)NO)CC1 [Example I-227, (E)-3-(2-(4-(ethylsulfonamido)piperidin-1-yl)phenyl)-N-hydroxyacrylamide]	< 1000
O=C(/C=C/c1ccccc1N1CCC(NS(=O)(=O)Cc2ccc(F)cc2)CC1)NO [Example I-228, (E)-3-(2-(4-(((4-fluorophenyl)methyl)sul-fonamido)piperidin-1-yl)phenyl)-N-hydroxyacrylamide]	< 1000
O=C(/C=C/c1ccccc1N1CCC(NS(=O)(=O)Cc2cccc(Cl)c2)CC1)NO [Example I-229, (E)-3-(2-(4-(((3-chlorophenyl)methyl)sul-fonamido)piperidin-1-yl)phenyl)-N-hydroxyacrylamide]	< 1000

— patent US10508077B2 (FORMA Therapeutics, Inc., priority 2015, dated 2019)
